From patent publication US20080152640A1, “Means and Methods For Treating a Disease Which is Associated With an Excess Transport of Hyaluronan Across a Lipid Bilayer” (priority 2003, published 2008)
Read-outs that look alike come from different tables or passages of the source.

Columns and labels:
MRP5 = MRP5 (Homo sapiens, UniProt O15440); settings: cited from earlier work
hyaluronan synthase = settings: for IC50: read-out: HA synthase activity (IC50), membranes of human fibroblasts
human fibroblasts [1] = test: Hyaluronan production of human fibroblasts (ELISA of culture medium); assay type: cell-based; settings: for IC50: Fibroblast, read-out: HA production (IC50)
MRP transporters = MRP transporters (Homo sapiens, UniProt P33527); settings: read-out: IC50 for MRP transporter; cited from earlier work
hyaluronan transport = test: Inhibition of hyaluronan transport (export) from human fibroblasts, discussion of Example 9; settings: for inhibition of hyaluronan transport (words): human fibroblasts
Protocol: Cells from five culture flasks (180 cm2 growth area) were washed with cold phosphate buffered saline (PBS), harvested with the aid of a rubber policeman, sedimented at 1500 g for 5 min and suspended in 30 ml of ice-cold PBS. The cells were transferred into a Parr-cell disruption bomb, exposed to a nitrogen pressure of 900 psi for 15 min and disrupted by nitrogen cavitation [18] and the particulate fraction was obtained by centrifugation at 40000 g for 20 min. […] Hyaluronan synthesis was stopped by adding a solution of 10% sodium dodecylsuifate (SDS) to a final concentration of 1%. The mixtures were applied to descending paper chromatography that was developed with ethanol/aq. 1 M ammonium acetate pH 5.5 (13:7) as solvent. After 18 h the radioactivity of [14C]hyaluronan at the origin was determined.
Trypsinised fibroblasts were suspended in Dulbecco's medium at 10^5 cells/ml and 100 μl aliquots were transferred to a 96 well microtiter plate. The first row received 200 μl of the suspension and 20 μl of the multidrug resistance inhibitors dissolved in DMSO at concentrations of 4 mM. A serial dilution to the inhibitors was established by transfer of 100 μl aliquots from the first row to the following rows. All experiments were performed in duplicates. […] The cells were incubated for 2 days at 37° C. and aliquots (5 and 20 μl) of the culture medium were used for measurement of the hyaluronan concentration in the cell culture medium by an ELISA [19]. […] The mixtures were transferred to the hyaluronan-coated test plate and incubated for 1 hour at 37° C. The microtiter plate was washed three times with buffer A and incubated with 100 μl/well of a solution of streptavidin-horseraddish-peroxidase (Amersham) at a dilution of 1:100 in phosphate buffered saline, 0.1% Tween-20 for 30 min at room temperature. The plate was washed five times with buffer A and the colour was developed by incubation with a 100 μl/well of a solution of 5 mg o-phenylenediamine and 5 μl 30% H2O2 in 10 ml of 0.1 M citrate-phosphate buffer pH 5.3 for 25 min at room temperature. The adsorption was read at 490 nm. The concentrations in the samples were calculated from a logarithmic regression curve of the hyaluronan standard solutions.
Three parameters were measured: 1. The amount of hyaluronan produced during growth into the culture supernatant. 2. The hyaluronan synthase activity in particulate membrane fractions to eliminate the possibility that inhibition of hyaluronan production in cell culture could be caused indirectly by cellular mediators. 3. The effect on cell proliferation, because hyaluronan synthesis is also required for detachment during mitosis and growth of the human HT1080 cell line [14].

MRP1 = MRP1 (Homo sapiens, UniProt P33527); settings: read-out: IC50, transport of 17β-glucuronosyl-estradiol by MRP1; substrate 17β-glucuronosyl-estradiol; cited from earlier work
human skin fibroblasts = test: Proliferation of human skin fibroblasts (cell counting); assay type: cell-based; settings: Homo sapiens, Skin fibroblast, read-out: Proliferation (IC50)
Protocol: Human fibroblasts were grown in […] in Dulbecco's modified Eagles medium supplemented with streptomycin/penicillin (100 units of each/ml), kanamycin (100 units/ml) and 10% foetal calf serum. Cell proliferation was determined by cell counting after trypsinisation three days after seeding.

MDR1 = MDR1 (Homo sapiens, UniProt P08183); settings: cited from earlier work
Chain of MDR1 (P08183 whole entry): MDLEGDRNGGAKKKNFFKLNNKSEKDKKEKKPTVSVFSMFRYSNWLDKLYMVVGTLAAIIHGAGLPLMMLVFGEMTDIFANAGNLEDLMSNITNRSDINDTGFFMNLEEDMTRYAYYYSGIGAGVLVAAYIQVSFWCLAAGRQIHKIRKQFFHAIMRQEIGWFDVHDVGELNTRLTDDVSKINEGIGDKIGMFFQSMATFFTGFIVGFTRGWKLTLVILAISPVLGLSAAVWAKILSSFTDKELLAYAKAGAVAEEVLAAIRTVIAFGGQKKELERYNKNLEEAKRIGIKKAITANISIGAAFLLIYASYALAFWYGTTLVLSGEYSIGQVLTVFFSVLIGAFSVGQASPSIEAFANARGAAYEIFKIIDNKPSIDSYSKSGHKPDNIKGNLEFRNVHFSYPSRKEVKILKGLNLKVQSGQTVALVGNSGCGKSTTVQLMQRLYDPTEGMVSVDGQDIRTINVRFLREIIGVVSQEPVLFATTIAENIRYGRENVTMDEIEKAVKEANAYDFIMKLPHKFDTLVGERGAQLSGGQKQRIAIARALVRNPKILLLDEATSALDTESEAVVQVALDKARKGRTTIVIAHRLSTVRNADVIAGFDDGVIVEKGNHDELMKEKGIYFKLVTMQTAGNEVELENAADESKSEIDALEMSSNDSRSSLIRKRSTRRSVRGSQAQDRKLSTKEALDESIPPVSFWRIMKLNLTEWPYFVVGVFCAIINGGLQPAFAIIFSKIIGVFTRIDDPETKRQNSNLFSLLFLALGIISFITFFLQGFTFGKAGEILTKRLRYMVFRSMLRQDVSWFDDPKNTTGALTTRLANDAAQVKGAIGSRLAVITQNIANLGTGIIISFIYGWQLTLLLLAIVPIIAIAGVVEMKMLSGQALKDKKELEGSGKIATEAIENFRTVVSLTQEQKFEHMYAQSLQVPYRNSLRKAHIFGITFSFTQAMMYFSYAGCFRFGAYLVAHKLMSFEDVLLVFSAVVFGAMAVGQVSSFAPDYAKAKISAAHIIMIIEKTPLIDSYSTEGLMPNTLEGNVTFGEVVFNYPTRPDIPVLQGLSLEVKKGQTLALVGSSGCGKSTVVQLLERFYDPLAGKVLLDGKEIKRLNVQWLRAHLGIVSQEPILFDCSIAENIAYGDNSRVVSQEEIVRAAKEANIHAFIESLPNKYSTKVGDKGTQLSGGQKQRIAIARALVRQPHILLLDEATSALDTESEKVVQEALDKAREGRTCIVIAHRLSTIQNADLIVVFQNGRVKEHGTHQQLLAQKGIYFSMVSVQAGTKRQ

[2] = system: bovine articular cartilage; test: Proteoglycan loss from interleukin-induced osteoarthritic bovine cartilage organ culture; assay type: cell-based; settings: different concentrations
From the text: We analyzed the efficacy of several inhibitors in organ cultures of bovine articular cartilage that was induced to become osteoarthritic by interleukin.

human fibroblasts [3] = test: Export of endogenously synthesized [3H]hyaluronan from human fibroblasts; assay type: cell-based; settings: for [3H]hyaluronan: 50 μg/ml in pinocytotic media, 40 hours
Protocol: (§1) This experiment was performed to investigate, whether an excess of hyaluronan oligosaccharides introduced into the cytosol interfere with the export of hyaluronan synthesized by the human fibroblasts. Fibroblasts (4×10^4 cells) were seeded into culture flasks of 25 cm^2 growth areas and incubated for 24 hours. High molecular weight hyaluronan, hyaluronan oligosaccharides, a mixture of N-acetyl-glucosamine and glucuronic acid or control buffer were introduced into the cytosol by the method of osmotic lysis of pinocytotic vesicles. The concentrations of the added components in the pinocytotic media were 50 μg/ml. The cells were incubated for 40 hours in the presence of [3H]GlcN (8 μCi/ml, specific activity 29 Ci/mmole) and the amount of radioactive hyaluronan released into the culture medium was determined as described.
as §1, with “Ci/ml,” for “μCi/ml,”, “μCi/mmole)” for “Ci/mmole)”
This experiment was performed to investigate, whether both processes could be uncoupled. Fibroblasts were labelled with [3H]GlcN and hyaluronan oligosaccharides, high molecular weight hyaluronan or an equal mixture of GlcNac and GlcA were introduced into the cytosol. [3H]hyaluronan secreted into the medium was isolated by ion exchange chromatography and the radioactivity was determined.

MRP7 = molecular target: T1, MRP7 (Homo sapiens, UniProt Q5T3U5); settings: cited from earlier work
T1 sequence (Q5T3U5 1-1492): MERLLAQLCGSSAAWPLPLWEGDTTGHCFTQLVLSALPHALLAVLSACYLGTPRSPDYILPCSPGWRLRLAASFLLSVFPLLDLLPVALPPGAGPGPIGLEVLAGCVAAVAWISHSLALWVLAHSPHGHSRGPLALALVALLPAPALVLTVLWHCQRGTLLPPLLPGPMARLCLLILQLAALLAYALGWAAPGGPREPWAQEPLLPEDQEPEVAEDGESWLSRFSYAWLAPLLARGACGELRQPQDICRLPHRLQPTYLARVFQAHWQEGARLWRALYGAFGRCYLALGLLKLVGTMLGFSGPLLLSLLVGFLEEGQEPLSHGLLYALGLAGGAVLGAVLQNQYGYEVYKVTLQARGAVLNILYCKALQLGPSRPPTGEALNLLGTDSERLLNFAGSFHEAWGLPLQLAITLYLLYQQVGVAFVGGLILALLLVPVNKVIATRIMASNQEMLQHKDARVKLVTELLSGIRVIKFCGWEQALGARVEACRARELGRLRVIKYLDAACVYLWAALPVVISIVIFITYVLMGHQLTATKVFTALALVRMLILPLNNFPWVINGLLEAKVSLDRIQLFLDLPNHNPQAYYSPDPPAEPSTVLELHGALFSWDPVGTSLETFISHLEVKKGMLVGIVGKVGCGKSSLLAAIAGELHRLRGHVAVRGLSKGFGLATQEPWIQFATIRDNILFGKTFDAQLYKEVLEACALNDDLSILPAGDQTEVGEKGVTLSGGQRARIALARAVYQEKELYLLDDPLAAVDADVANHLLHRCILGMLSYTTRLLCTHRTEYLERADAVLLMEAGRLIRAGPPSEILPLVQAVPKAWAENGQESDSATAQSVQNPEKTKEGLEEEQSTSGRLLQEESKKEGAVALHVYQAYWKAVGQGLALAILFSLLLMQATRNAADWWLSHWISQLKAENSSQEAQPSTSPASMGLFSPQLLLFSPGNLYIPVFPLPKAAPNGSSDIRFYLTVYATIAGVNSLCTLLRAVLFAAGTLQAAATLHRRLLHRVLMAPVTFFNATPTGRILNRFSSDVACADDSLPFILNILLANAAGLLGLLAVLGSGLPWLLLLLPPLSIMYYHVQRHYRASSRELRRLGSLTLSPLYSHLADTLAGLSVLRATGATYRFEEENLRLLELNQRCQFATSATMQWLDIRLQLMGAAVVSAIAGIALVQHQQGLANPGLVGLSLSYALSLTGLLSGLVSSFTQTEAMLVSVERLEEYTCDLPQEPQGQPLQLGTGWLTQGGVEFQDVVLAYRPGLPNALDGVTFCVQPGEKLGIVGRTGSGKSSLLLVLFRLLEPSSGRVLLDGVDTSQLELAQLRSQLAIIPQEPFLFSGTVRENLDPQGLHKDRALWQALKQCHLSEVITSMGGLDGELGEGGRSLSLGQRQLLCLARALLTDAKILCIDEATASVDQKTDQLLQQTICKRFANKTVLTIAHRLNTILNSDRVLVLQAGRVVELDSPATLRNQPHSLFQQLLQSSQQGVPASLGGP

MRP2 = MRP2 (Homo sapiens, UniProt Q92887); settings: cited from earlier work
Chain of MRP2 (Q92887 whole entry): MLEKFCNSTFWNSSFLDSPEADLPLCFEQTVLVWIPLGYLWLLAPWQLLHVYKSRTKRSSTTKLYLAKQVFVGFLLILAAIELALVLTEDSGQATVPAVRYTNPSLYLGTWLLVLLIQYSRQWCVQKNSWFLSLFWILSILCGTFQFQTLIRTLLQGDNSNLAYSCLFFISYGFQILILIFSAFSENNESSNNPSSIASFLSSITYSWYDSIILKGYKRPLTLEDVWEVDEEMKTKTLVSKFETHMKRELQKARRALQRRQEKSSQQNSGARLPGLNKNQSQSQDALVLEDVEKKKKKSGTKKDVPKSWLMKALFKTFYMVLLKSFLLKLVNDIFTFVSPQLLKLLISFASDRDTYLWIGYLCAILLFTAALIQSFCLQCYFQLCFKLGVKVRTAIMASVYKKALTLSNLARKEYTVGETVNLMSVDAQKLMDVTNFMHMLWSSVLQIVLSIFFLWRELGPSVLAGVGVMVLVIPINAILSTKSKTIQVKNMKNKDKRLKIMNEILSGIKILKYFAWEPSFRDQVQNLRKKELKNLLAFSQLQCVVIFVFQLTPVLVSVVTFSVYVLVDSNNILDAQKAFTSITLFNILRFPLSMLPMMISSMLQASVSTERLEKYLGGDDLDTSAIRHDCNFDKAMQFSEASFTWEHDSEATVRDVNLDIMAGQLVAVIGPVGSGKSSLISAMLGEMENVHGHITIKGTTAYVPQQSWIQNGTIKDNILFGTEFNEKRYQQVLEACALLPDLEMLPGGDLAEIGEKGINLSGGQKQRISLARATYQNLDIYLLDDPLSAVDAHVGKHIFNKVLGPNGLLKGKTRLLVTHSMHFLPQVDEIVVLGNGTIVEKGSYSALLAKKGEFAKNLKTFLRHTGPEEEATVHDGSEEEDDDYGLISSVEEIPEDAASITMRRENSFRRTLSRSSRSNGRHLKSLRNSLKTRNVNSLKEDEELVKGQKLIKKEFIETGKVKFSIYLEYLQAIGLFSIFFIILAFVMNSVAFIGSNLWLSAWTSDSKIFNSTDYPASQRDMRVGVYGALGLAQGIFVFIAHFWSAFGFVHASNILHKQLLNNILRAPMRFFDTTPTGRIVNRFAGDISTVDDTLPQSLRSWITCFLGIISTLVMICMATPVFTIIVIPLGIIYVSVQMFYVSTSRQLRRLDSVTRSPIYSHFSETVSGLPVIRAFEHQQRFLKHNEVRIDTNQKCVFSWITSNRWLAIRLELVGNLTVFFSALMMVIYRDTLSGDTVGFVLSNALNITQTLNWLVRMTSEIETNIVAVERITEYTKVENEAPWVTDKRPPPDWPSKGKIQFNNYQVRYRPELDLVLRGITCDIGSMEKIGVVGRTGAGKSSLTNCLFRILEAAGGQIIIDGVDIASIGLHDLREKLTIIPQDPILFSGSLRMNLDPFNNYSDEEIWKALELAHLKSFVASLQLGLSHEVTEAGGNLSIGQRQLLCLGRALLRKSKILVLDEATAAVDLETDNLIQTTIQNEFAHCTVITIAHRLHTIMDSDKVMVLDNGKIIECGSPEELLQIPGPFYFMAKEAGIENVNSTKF

MRP4 = molecular target: T2, MRP4 (Homo sapiens, UniProt O15439); settings: read-out: IC50, MRP4 mediated export of methotrexate; substrate methotrexate; cited from earlier work
T2 sequence (O15439 1-1325): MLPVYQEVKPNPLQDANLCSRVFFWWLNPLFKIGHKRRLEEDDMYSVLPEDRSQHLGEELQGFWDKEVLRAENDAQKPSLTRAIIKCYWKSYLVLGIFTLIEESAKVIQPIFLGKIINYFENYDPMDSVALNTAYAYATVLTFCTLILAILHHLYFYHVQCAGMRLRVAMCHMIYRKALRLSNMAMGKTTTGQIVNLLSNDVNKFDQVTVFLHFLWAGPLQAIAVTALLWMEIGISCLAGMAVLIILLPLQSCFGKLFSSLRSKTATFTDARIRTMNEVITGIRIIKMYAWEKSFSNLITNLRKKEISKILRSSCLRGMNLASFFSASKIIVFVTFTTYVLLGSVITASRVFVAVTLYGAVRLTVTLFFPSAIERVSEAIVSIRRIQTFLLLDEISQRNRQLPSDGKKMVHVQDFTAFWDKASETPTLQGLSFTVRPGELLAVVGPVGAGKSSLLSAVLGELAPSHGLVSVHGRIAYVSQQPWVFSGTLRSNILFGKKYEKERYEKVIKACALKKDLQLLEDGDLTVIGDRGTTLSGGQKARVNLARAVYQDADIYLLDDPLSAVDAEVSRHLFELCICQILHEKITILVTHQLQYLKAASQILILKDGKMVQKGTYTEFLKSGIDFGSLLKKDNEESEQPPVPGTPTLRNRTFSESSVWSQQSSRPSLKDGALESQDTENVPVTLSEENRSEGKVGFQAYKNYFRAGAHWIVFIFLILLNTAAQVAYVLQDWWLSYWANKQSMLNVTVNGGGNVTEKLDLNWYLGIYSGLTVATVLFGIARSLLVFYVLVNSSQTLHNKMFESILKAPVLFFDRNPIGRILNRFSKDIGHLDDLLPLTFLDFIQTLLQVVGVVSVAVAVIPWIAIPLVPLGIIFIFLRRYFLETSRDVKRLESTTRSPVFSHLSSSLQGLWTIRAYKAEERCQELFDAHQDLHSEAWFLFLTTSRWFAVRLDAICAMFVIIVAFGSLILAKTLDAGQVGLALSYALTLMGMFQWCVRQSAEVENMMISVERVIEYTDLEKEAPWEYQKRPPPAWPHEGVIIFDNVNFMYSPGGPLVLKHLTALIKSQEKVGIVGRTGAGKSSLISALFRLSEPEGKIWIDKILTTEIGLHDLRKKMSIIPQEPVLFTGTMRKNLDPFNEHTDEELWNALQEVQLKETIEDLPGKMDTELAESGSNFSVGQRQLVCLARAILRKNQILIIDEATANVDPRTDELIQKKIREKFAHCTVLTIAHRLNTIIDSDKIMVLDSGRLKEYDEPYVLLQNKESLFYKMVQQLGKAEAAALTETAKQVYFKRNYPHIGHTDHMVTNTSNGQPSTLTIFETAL

[4] = human fibroblasts, culture medium

Chain of MRP5 (O15440 whole entry): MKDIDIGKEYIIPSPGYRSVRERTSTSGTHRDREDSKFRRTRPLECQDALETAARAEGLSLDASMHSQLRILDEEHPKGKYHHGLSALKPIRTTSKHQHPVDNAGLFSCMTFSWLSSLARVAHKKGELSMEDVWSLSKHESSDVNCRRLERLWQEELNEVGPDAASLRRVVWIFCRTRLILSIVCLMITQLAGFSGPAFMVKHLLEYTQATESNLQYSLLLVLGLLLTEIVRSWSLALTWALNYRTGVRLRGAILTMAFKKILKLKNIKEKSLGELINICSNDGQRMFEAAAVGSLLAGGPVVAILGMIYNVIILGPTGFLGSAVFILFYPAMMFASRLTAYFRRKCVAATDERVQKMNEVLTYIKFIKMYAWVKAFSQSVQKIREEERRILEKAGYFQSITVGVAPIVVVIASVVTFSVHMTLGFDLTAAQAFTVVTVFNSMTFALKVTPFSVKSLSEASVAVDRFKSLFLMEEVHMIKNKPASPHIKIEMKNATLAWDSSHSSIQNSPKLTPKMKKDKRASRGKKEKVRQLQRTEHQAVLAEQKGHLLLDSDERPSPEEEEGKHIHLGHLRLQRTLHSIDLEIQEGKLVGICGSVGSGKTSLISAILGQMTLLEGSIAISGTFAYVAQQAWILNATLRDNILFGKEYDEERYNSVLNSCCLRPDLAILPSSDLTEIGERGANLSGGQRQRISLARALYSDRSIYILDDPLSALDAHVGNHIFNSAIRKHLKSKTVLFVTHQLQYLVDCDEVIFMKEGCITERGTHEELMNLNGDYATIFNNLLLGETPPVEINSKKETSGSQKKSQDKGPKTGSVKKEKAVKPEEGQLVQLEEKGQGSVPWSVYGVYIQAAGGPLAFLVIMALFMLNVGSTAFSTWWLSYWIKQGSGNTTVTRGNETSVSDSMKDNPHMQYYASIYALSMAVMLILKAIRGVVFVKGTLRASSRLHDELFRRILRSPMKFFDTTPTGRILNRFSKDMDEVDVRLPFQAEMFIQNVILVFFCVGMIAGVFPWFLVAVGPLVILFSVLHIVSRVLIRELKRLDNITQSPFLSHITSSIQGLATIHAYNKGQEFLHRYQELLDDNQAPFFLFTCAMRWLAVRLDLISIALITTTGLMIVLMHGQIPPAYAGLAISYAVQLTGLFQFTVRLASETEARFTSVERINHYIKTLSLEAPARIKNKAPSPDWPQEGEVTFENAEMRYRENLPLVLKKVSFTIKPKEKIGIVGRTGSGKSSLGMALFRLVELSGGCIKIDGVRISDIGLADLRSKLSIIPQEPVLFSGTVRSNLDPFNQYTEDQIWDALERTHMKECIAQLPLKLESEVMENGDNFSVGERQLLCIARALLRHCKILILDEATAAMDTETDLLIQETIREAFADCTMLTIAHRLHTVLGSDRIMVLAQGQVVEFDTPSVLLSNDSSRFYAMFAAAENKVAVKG

COc1ccc2c(c1)c(CC(=O)O)c(C)n2C(=O)c1ccc(Cl)cc1 [Indomethacin]
IC50 (MRP5; read-out: published inhibitory concentrations IC50 or Ki, MRP5): > 100 µM
IC50 (MRP5; substrate S-(2,4-dinitrophenyl)glutathione, read-out: IC50, MRP5 mediated transport of S-(2,4-dinitrophenyl)glutathione): > 100 µM
IC50 (hyaluronan synthase): 10 µM
IC50 (human fibroblasts [1]; [4]): 50 µM
IC50 (MRP transporters): 10 to 20 µM
inhibition of hyaluronan transport (words) (hyaluronan transport): very good inhibition
inhibition of hyaluronan transport (words) (hyaluronan transport; listed as indomethacin): inhibited hyaluronan transport
IC50 (MRP1): ~50 µM
IC50 (human skin fibroblasts): 200 µM
IC50 (MDR1; read-out: IC50 for MDR1): > 800 µM
IC50 (MDR1; read-out: published inhibitory concentrations IC50 or Ki, MDR1): > 800 µM

CC(C)COCC(CN(Cc1ccccc1)c1ccccc1)N1CCCC1 (stereo not shown) [bepidril]
protection from proteoglycan loss, safranin O histology [2]: only inhibitory at high concentrations

N=C(N)NC(=O)c1nc(Cl)c(N)nc1N [amyloride]
protection from proteoglycan loss, safranin O histology [2]: only inhibitory at high concentrations

Hyaluronan
[3H]hyaluronan (human fibroblasts [3]; Example 10 Table 2, buffer): 10700 cpm
[3H]hyaluronan (human fibroblasts [3]; Example 11 Table 1, buffer 9436): 10723 cpm
export of endogenous labelled hyaluronan (human fibroblasts [3]; introduced into the cytosol): not

OCCN(CCO)c1nc(N2CCCCC2)c2nc(N(CCO)CCO)nc(N3CCCCC3)c2n1 [Dipyramidole]
IC50 (hyaluronan synthase): ~1 µM
IC50 (human fibroblasts [1]; Homo sapiens): 15 µM
inhibition of hyaluronan transport (words) (hyaluronan transport): effective inhibitor

CN(C)C(=O)CCSC(SCCC(=O)O)c1cccc(/C=C/c2ccc3ccc(Cl)cc3n2)c1 (stereo not shown) [MK-571]
effect on MRP5 mediated transport of cGMP (MRP5; at concentrations up to 50 μM): no inhibitory effect
published inhibitory concentrations IC50 or Ki, MRP5 (MRP5): no
hyaluronan transport / synthase activity in membranes (hyaluronan synthase; membranes from human fibroblasts): less efficient
IC50 (hyaluronan synthase): > 100 µM
IC50 (human fibroblasts [1]; [4]): > 400 µM
concentrations at which hyaluronan secretion/production is inhibited (human fibroblasts [1]; human fibroblasts, inhibition only partial): above 100 μM
inhibition of 17β-glucuronosyl-estradiol export by MRP7 (MRP7; at 30 μM): 42%
inhibition of hyaluronan transport (words) (hyaluronan transport): did not inhibit
IC50 (human skin fibroblasts): 150 µM
IC50 (MRP2): 469 µM

C/C=C/C[C@@H](C)C(=O)[C@H]1C(=O)N[C@@H](C(C)C)C(=O)N(C)CC(=O)N(C)[C@@H](CC(C)C)C(=O)N[C@@H](C(C)C)C(=O)N(C)[C@@H](CC(C)C)C(=O)N[C@@H](C)C(=O)N[C@H](C)C(=O)N(C)[C@@H](CC(C)C)C(=O)N(C)[C@@H](CC(C)C)C(=O)N(C)[C@@H](C(C)C)C(=O)N1C [Valspodar, cyclosporin D, 6-[(2S, 4R, 6E)-4-methyl-2 (methylamino)-3-oxo-6-octenoic acid]-(9CI)]
IC50 (human fibroblasts [1]; Homo sapiens): 15 µM
IC50 (hyaluronan transport; Homo sapiens, Fibroblast, read-out: IC50 for hyaluronan transport (export)): ~15 µM
IC50 (human skin fibroblasts): 45 µM

COc1cc2c(cc1OC)-c1c/c(=N\c3c(C)cc(C)cc3C)n(C)c(=O)n1CC2 [Trequinsin]
Ki (MRP5; substrate cAMP, read-out: Ki, MRP5 mediated transport of cAMP): 380 nM
Ki (MRP5; substrate cGMP, read-out: Ki, MRP5 mediated transport of cGMP): 240 nM
IC50 (hyaluronan synthase): 60 µM
IC50 (MRP4): ~10 µM
IC50 (human fibroblasts [1]; [4]): 6 µM
inhibition of export of 17β-glucuronosyl-estradiol by MRP7 (MRP7; at 100 μM): 44%
inhibition of hyaluronan transport (words) (hyaluronan transport): good inhibitor
IC50 (human skin fibroblasts): 100 µM
